# According to a melting point compilation (Tetko et al.; mined from patent text by program, amines drawn as free bases though some values may be those of a salt):
row,Structure (SMILES),melting point [°C]
1,c1ccc(CCN2CCN(c3n[nH]c4c3Cc3ccccc3-4)CC2)cc1,212 to 214
2,O=C1CCC(c2ccc3c(c2)CCC2(CCN(C4CCC4)CC2)O3)=NN1,242 to 244
3,CNCCCNC(=O)c1[nH]c(-c2ccccc2)c2cc(Cl)ccc12,162 to 164
4,N#Cc1ccc(N2CCCC2)c2ccccc12,109 to 110
5,CCOC(=O)C(=O)Nc1ncc(C)s1,166 to 168
6,CCOC(=O)C(=CNc1cc(OCc2ccccc2)c(OCc2ccccc2)cn1)C(=O)OCC,117
7,O=C(NNC(=O)c1cccc([N+](=O)[O-])c1)c1cccc([N+](=O)[O-])c1,245
8,CNC1=NS(=O)(=O)N=C1NCCSCc1ccc(CN(C)C)o1,92 to 96
9,O=C1N(Cc2ncccc2C(F)(F)F)c2ccccc2C12COc1ccc3c(c12)OCCO3 (stereo not given),245 to 247
10,N#Cc1ccc(OCCCN2CCC(C(O)(c3ccc(F)cc3)c3ccc(F)cc3)CC2)cc1,107 to 108
11,Cc1ccc(C(=O)Nc2ccc(N3CCCC3)c(C(F)(F)F)c2)cc1Nc1nccc(-c2cccnc2)n1,129 to 130
12,CCOC(=O)c1c(C)cc2nc(COC(N)=O)n(-c3ccccc3C(F)(F)F)c(=O)c2c1C,158 to 159
13,Clc1ccccc1N=Cc1ccc(-c2nc3ccccn3n2)cc1,135 to 136
14,COc1ccc2c(=O)[nH]nc(C)c2c1,252 to 254
15,Cc1cc(C)cc(C(=O)c2c(C(C)C)c(=O)[nH]c(=O)n2C/C=C/CN=[N+]=[N-])c1,126 to 127
16,CC(C)CC(=O)Nc1cccc(-c2ccnc3c(-c4cccc(N(C)C)c4)cnn23)c1,182 to 184
17,Cc1nc2c(s1)-c1nc(Nc3ccccc3)ncc1CC2,223 to 224
18,CC(=O)N1N=C(c2ccc([N+](=O)[O-])c(C)c2)c2cc3c(cc2CC1(C)C#N)OCO3 (stereo not given),253 to 255
19,COc1nc(OC)c(C(C)C)c(C(=O)c2cc(Cl)cc(Cl)c2)n1,120 to 121
20,O=c1c(-c2ccccc2)c[nH]nc1-c1ccccc1,328 to 332
21,COCCCn1c(C=O)cc2c3c(c(-c4ccccc4Cl)cc21)C(=O)NC3=O,155 to 156
22,COc1cc(C)c(N)cc1C,75 to 76
23,COc1ccc(-c2c(C(C)=O)c(C)nc3cc(OC)c(OC)cc23)cc1OC,210 to 211
24,N#Cc1ccc(NC(=O)NCCCN2CCN(CCCc3ccc(Cl)cc3)CC2)cc1,219 to 221
25,"CN1C(=O)CCC2(C)c3ccc(Sc4ccncc4)cc3CCC12 (single isomer, unassigned; (+))",157 to 158

row,Structure (SMILES),melting point [°C]
1,COc1ccc2nc(C(F)(F)F)c(C(=O)Nc3nccs3)c(O)c2c1,> 270
2,N#Cc1cc(Cl)cc(Oc2ccc(CC(=O)Nc3ccc(S(N)(=O)=O)cc3Cl)cc2Br)c1,205 to 207
3,CCc1nn(Cc2cc(=O)[nH]c(N)n2)c(CC)c1Oc1cc(Cl)cc(Cl)c1,238 to 240
4,O=C(O)CCCCc1nc2c(F)c(F)cc(F)c2s1,122 to 124
5,CS(=O)(=O)Nc1cc([N+](=O)[O-])ccc1Oc1ccccc1,112 to 114
6,O=S(=O)(F)c1ccccc1S(=O)(=O)N1CCC1,93
7,CSC(=S)N1Cc2[nH]c3ccccc3c2CC1CCO (stereo not given),166 to 167
8,CCOC(=O)c1cc(OCc2ccccc2)c2ccc(Br)cc2c1,105
9,COc1ccc(C(=O)Nc2cccnc2)cc1N,193 to 196
10,Oc1ccc(-c2nnn(-c3ccc(C(F)(F)F)cc3F)c2Cl)c(Cl)c1,150 to 152
11,COc1cc2c(cc1OCc1ccccc1)C(Sc1ccc(Cl)cc1)(C(N)=CC(=O)OC(C)(C)C)C2 (stereo not given),112 to 115
12,CC(C)(C)OC(=O)N1Cc2ccccc2CN1,68 to 71
13,CCC12CCC3C4CCC(=O)C=C4C(Cl)CC3C1C(OC(C)=O)CC2=O (stereo not given),115
14,COC(=O)CCn1c(=O)[nH][nH]c1=O,150 to 153
15,O=C1CCCCN1C1=CC(CF)(CF)Oc2ccc(C(F)(F)C(F)(F)F)cc21,149 to 150
16,CC(C)(C)OC(=O)NC[C@H]1C[C@H]1CON1C(=O)c2ccccc2C1=O (relative stereo),96 to 97
17,CC(=O)c1cc2nc(SCc3nccc4c3OCO4)[nH]c2cc1C,141 to 143
18,O=C(Nc1ccc(O)cc1)Nn1cnc2ccccc2c1=O,220 to 223
19,COC(=O)c1cccc(-c2cccnc2)c1,125 to 126
20,Cc1cccc(C)c1N(CC(C)N)S(C)(=O)=O (stereo not given),106 to 109
21,COc1cccc(C(=O)c2ccc(OC)c(C(=O)O)c2)c1,132
22,NS(=O)(=O)c1ccc(-n2nc(CCCNC(=O)NC34CC5CC(CC(C5)C3)C4)cc2-c2ccccc2)cc1,139 to 144
23,COC(=O)CCc1cc(C(=O)c2cccc(C(=O)OC)n2)ccc1O,121 to 122
24,O=C1C=CC(OC2CCCC2)N1 (stereo not given),81 to 82
25,COC(=O)C1=C(C)NC(C)=C(S(=O)(=O)c2ccc(OC)cc2)C1c1ccccc1Cl (stereo not given),176 to 178

row,Structure (SMILES),melting point [°C]
1,N#Cc1c[nH]cc1-c1cccc(C(F)(F)F)c1Cl,82
2,COc1ccc2[nH]cc(CCCN(CC3CC3)C3COc4c(F)ccc(C(N)=O)c4C3)c2c1 (stereo not given),148 to 154
3,CNC(=O)ON=C1OCCSC1(C)C,67 to 68
4,Cc1cc(O)cc2cc(-c3ccc(O)c(F)c3)oc12,196 to 198
5,N#CNc1ccccc1-c1ccccc1F,68 to 69
6,CCCc1c(OCCCSc2nnc(SCC(=O)N(C)O)s2)ccc(C(C)=O)c1O,97 to 99
7,Cn1c([N+](=O)[O-])cnc1-c1nnc2ccc(N3CCOCC3)nn12,240 to 242
8,CN(C)N=Nc1ccsc1C(=O)O,108 to 110
9,CC(=O)NC[C@H]1CN(c2ccc(C(=O)c3cnc4ccc(F)cn34)cc2)C(=O)O1,224 to 226
10,COc1cc2[nH]nc(S(C)=O)c(=O)c2cc1OC (stereo not given),303
11,O=C(O)COCCOCCN1CCC(=C(c2ccccc2)c2ccccc2)CC1,120 to 123
12,CC1CCN(c2c(-c3c(F)cc(F)cc3F)c(Cl)nc3nc(SCc4ccccc4)nn23)CC1,147
13,NC(=O)c1sc2nc(N3CCC(NCC(O)c4ccc5ncccc5c4)CC3)cc(C(F)(F)F)c2c1N (stereo not given),217 to 219
14,COc1cc(C)nc(NC(=O)NS(=O)(=O)c2ccccc2N=NN(C)C)n1,158 to 160
15,COc1ccc(C(=O)Nc2ccc(F)c(F)c2)cc1NS(=O)(=O)c1cc(Cl)cc(Cl)c1,228 to 231
16,COC(=O)CCC(=O)c1ccccc1N,50 to 51
17,O=C(O)C1(CCCCCCCCCCCCC2(C(=O)NC3CC3)CC2)CC1,95.3 to 97.7
18,CC(CCCC(C)(C)O)C1CCC2C3CC=C4CC(O)CC(O)C4(C)C3CCC12C (stereo not given),170 to 172
19,Cc1c(NC(=O)CC(C)(C)C)cc2c(c1C)OC(C)(C)C2c1ccc(CO)cc1 (stereo not given),162 to 163
20,O=C(NC1CCCCC1)c1ccc(F)c2c1CC(N(CCCc1c[nH]c3ccc(F)cc13)C1CCC1)CO2 (stereo not given),134
21,Cc1ccccc1OS(=O)(=O)c1cc(S(N)(=O)=O)c(Oc2ccccc2)cc1Cl,157 to 159
22,CCCCCCCN(CCCCCSc1nc(-c2ccccc2)c(-c2ccccc2)[nH]1)C(=S)Nc1ccc(F)cc1F,116 to 118
23,O=c1cc(Cc2c[nH]c3ccccc23)[nH]n1C1CCCCC1,192 to 194
24,COc1ccc(CCN2C=CC=C3C2=Nc2cc(C)ccc2S(=O)(=O)N3C)cc1,128
25,CSc1nc(-c2ccc(F)cc2)nc(-c2ccccn2)n1,158

row,Structure (SMILES),melting point [°C]
1,CCCc1c(/C=C/c2ccccc2C)nc2ccc(C(=O)O)cn2c1=O,190 to 191
2,N#Cc1[nH]c(-c2ccc(Cl)cc2Cl)nc1N,223 to 225
3,CN(C)C=C1CCCc2cc(N3C[C@H](CNC(=O)OC(C)(C)C)OC3=O)ccc2C1=O,157 to 160
4,CN(Cc1ccccc1)C1CCN(c2ccc(N)cc2)CC1,138
5,CCCCC(CC)C(=O)Nc1ccc(-n2nc3ccc(C(F)(F)F)cc3n2)c(O)c1 (stereo not given),179 to 181
6,COc1ccc2c(c1)CC(CC#N)C2=O (stereo not given),117 to 120
7,CSc1nnc(SC)c2cc(-c3ccccc3)ncc12,155
8,CC1(C)C(C=NOCC2CC2)C1C(=O)O (stereo not given),82 to 85
9,C#CCC(c1ccc(Cl)cc1Cl)C(O)(C(C)=O)c1cccnc1 (stereo not given),132
10,COc1ccc2[nH]c3c(C)cnc(Cl)c3c2c1,243 to 245
11,CC(C(=O)O)c1ccc2nc(-c3ccc(Cl)cc3)oc2c1 (stereo not given),188 to 191
12,O=C(CCCCCBr)NC1CCCCC1,73 to 74
13,Cc1ccccc1S(=O)(=O)NC(=O)CCc1cc(OC(C)C)nn1Cc1ccc(Cl)cc1Cl,165 to 166
14,CC(=O)OCC1OC(n2cc(Cc3ccc(Br)s3)c3c(Cl)cccc32)C(OC(C)=O)C(OC(C)=O)C1OC(C)=O (stereo not given),185 to 187
15,CC(C)(Cn1cnc2c(N)nc3c(c21)CCCC3)OCCS(C)(=O)=O,219 to 223
16,NC(=O)c1ccc(N2CCNCC2)cc1,240 to 243
17,FC(F)Oc1cccc(C=C2c3ccccc3CCc3ccccc32)c1,91.3
18,CCC1(C)CC(=O)C(C(=O)Nc2ccc(Cl)c(Cl)c2)C(=O)C1 (stereo not given),74 to 75
19,Cc1nn(-c2c(Cl)cc(C(F)(F)F)cc2Cl)c(N)c1SC(C)(F)F,123 to 125
20,COc1cc(OC)c2c3c(oc2c1)CC(C(=O)O)CC3 (stereo not given),194 to 196
21,O=C(Nc1cccc2c(Cn3cnc4ccccc43)ccnc12)c1c(Cl)cccc1Cl,248 to 253
22,CC(C)(C)OC(=O)Nc1ccccc1NC(=O)c1ccc(C(=O)O)cc1,190 to 192
23,CCCCCn1c2ccccc2c2cc(C(=O)N3CCCCC3)ncc21,126 to 127
24,O=C(NCc1ccccn1)c1cc(OCC(F)(F)F)ccc1O,143 to 145
25,O=C1c2cccc(Cl)c2C(=O)N1CCN1CCC(c2noc3cc(F)ccc23)CC1,170 to 171
